The record followed here is patent publication US20030004148A1, “Regulation of meiosis” (priority 1994, published 2003).

Data set [1] relates to Cumulus enclosed oocyte (CEO). Kind of data set: Oocyte test, cumulus enclosed oocytes (CEO). The class given is cell-based, mice. The settings on record: HX-medium, 24 hours culture. How it is done: (§1) Animals: Immature female mice (B6D2-F1, strain C57B1/2J) were kept under controlled lighting (14 hr light, 10 hr dark) and temperature, with food and water ad libitum. When the animals reached a weight of 13-16 grams (which correspond to the age of 20 to 22 days post partum) they were given a single injection (i.p.) of human menopausal gonadotropin (Humegon, Organon, The Netherlands) containing approximately 20 IU FSH and 20 IU LH (Ziebe, S. et al. Hum. Reprod. 8(1993) 385-88). 48 hours later the animals were killed by cervical dislocation.
(§2) Collection and culture of oocytes: The ovaries were removed, placed in HX-medium (se below) and freed of extraneous tissue. The collection- and culture medium consisted of Eagles minimum essential medium (Flow, USA), containing 4 mM hypoxanthine, 3 mg/ml of bovine serum albumin, 0.23 mM sodium pyruvate, 2 mM glutamine, 100 U/ml of penicillin, and […] of streptomycin (all Sigma, USA). This medium is termed HX-medium. The same medium but without HX was used as control medium.
(§3) The antral follicles of the ovaries were punctured under a dissecting microscope using a 27-gauge needle. Cumulus enclosed oocyte (CEO) of uniform size were selected and rinsed three times in fresh HX-medium.
(§4) Oocytes freed from cumulus cells, i.e. denuded oocytes, DO, were obtained by gentle flushing CEO through a fine-bore mouth-controlled pipet. CEO and DO were cultured in 4-well multidishes (Nunclon, Denmark) containing 0.5 ml of HX-medium except the controls which were cultured in control medium. Each well contained 35 to 50 oocytes.
(§5) The cultures were performed at 37° C. and 100% humidity with 5% CO2 in air. The culture time was 24 hours.
(§6) Examination of oocytes: By the end of the culture period the number of oocytes with germinal vesicle (GV) or germinal vesicle breakdown (GVBD) and those with polar body (PB) was counted in an inverted microscope with differential interference contrast equipment. The percentage of oocytes with GVBD per total number of oocytes and the percentage of oocytes with PB per GVBD was calculated. One unit of MIS activity is defined as: [formula]
(§7) and the number of MIS activity units is calculated as: [formula]

The test system of a further data set is denuded oocytes, DO. Kind of data set: Oocyte test, denuded oocytes (DO). The format is cell-based, mice. The settings on record: HX-medium, 24 hours culture. Here is the method:
as §1, §2, §3, §4, §5, §6, §7

The subject of data set [2] is oocytes of isolated perfused ovaries. Kind of data set: GVB in isolated perfused ovaries from immature rats. Further details: species or system Immature Sprague-Dawley rats. The settings on record: for % GVB (oocytes undergoing germinal vesicle breakdown per total oocytes per ovary), mean±sd: perfusion up to 12 h, 7 ovaries. Here is the method:
Animals and Experimental Procedure: Immature Sprague-Dawley rats (body weight: 50-55 g) were injected s.c. with 20 IU pregnant mare serum gonadotropin (PMSG). 48 hours later, the rats were anesthetized with a combination of Ketavet/Rompun (105 and 8.3 mg/kg BW, respectively). Heparin sulfate (300 IU) was injected into the tail vein.
Ovaries with connecting vasculature were surgically isolated and perfusions were performed in a recirculating system (Koos RD et al. (1984) Biol Reprod 30:1135-1141) containing approximately 35 ml of perfusion medium (Medium 199 with Earle's salts supplemented with 50 μg/ml gentamycin sulfate, 0.2 IU/ml insulin, and 4% BSA).
The ovaries were initially perfused for approximately 1 hour to allow metabolic stabilization of the tissue. Only the ovarian specimens which maintained a flow rate between 0.8 and 1.5 ml/min at pressure of 80 mmHg during the stabilization period were used in the experiments.
After 1 hour of preperfusion, the effect of 4,4-dimethyl-5^α-cholesta-8,14,24-triene-3^β-ol (FF-MAS), IBMX (iso-butyl-methyl-xanthine), LH (luteinizing hormone), and cholesterol were tested by dividing the ovarian specimens into control and experimental groups. Additions to the perfusion medium were made as follows:
Prior to addition to the perfusion medium, FF-MAS and cholesterol were diluted in ethanol, and LH and IBMX were diluted in perfusion medium. For the investigation of meiosis, perfusions were continued up to 12 h after addition of the compounds.
At termination of each perfusion ovaries were dissected free from adherent tissue and oocytes isolated under a stereo microscope by manual rupture of the follicles using a pair of 27 gauge needles. Oocytes per ovary were counted and examined using Nomarski differential interference contrast optics.
Oocytes with a germinal vesicle breakdown (GVB) were regarded as undergoing meiotic maturation (Tsafiri et al. (1980) J. Reprod. Fertil. 60:399-402). The % GVB, defined as percentage of oocytes undergoing GVB per total number of oocytes in each ovary was calculated. Each experimental group consisted of 7 perfused ovaries. Data are presented as mean±sd. Statistical differences were calculated by one-way ANOVA followed by Students's t-test. P-values<0.05 indicated a statistically significant higher % GVB in treated groups compared to the control.

In turn, `CC(=O)OC1CC[C@]2(C)C3=C(CCC2C1(C)C)C1=CC[C@H]([C@H](C)CCCC(C)C)[C@@]1(C)CC3` (some centres unmarked) gave a melting point of 120 to 125 °C.
As to `CC(C)=CCC[C@@H](C)[C@H]1CC[C@H]2C3=C(CC[C@]12C)[C@@]1(C)CC[C@H](O)C(C)(C)[C@@H]1CC3` [4,4-Dimethyl-zymosterol, 4,4-dimethyl-^5α-cholesta-8,24-diene-^3β-ol], the “CEO, units of MIS activity” value is 1.0 units of MIS activity in data set [1] (0.002 μg/ml); 1.3 units of MIS activity in data set [1] (0.02 μg/ml); 1.3 units of MIS activity in data set [1] (0.2 μg/ml); 2.7 units of MIS activity in data set [1] (0.3 μg/ml); 2.9 units of MIS activity in data set [1] (1.2 μg/ml). The “DO, units of MIS activity” value was 0.9 units of MIS activity in the data set with denuded oocytes, DO (0.002 μg/ml); 1.5 units of MIS activity in the data set on denuded oocytes, DO (0.02 μg/ml); 0.6 units of MIS activity with denuded oocytes, DO (0.2 μg/ml); 1.8 units of MIS activity in the data set with denuded oocytes, DO (0.3 μg/ml); 2.7 units of MIS activity with denuded oocytes, DO (1.2 μg/ml).
As for `CC(C)CCC[C@@H](C)[C@H]1CC[C@H]2C3=C(CC[C@]12C)[C@@]1(C)CC[C@H](O)C(C)(C)C1CC3` (stereo partly drawn) [4,4-Dimethylcholest-8-ene-^3β-ol], the “CEO, units of MIS activity” value in data set [1] (0.03 μg/ml) is listed as 12.8 units of MIS activity. The “DO, units of MIS activity” value in the data set on denuded oocytes, DO (0.03 μg/ml) was 0.8 units of MIS activity.
As to `CC(C)CCC[C@@H](C)[C@H]1CC=C2C3=C(CC[C@@]21C)[C@@]1(C)CC[C@H](O)C(C)(C)C1CC3` (stereo partly drawn) [4,4-Dimethylcholesta-8,14-dien-^3β-ol, 4,4-Dimethylcholesta-8,14-Dien-^3β-ol], the “CEO, units of MIS activity” value in data set [1] (3.0 μg/ml) is 0 units of MIS activity. For the same molecule, the “DO, units of MIS activity” value in the data set with denuded oocytes, DO (3.0 μg/ml) is 2.25 units of MIS activity.
For `CC(C)=CCC[C@@H](C)[C@H]1CC=C2C3=C(CC[C@@]21C)[C@@]1(C)CC[C@H](O)C(C)(C)[C@@H]1CC3` [4,4-dimethyl-^5α-cholesta-8,14,24-triene-^3β-ol], the “CEO, units of MIS activity” value in data set [1] (0.03 μg/ml) is listed as 0.5 units of MIS activity; in data set [1] (0.3 μg/ml), 2.3 units of MIS activity. The “DO, units of MIS activity” value in the data set on denuded oocytes, DO (0.03 μg/ml) is recorded as 1.6 units of MIS activity; in the data set with denuded oocytes, DO (0.3 μg/ml), 0.6 units of MIS activity. Further, the “% GVB (oocytes undergoing germinal vesicle breakdown per total oocytes per ovary), mean±sd” value in data set [2] (30 μM with 0.2 mM IBMX) is given as 14.6±4.2%; in data set [2] (60 μM with 0.2 mM IBMX), 66.9±7.4%. Further, the effective dose in data set [2] (corresponds to the effective 30-60 μM in perfused rat ovaries) is reported as 12-24 mg/liter bood volume.
Consider `CC(C)=CCC[C@@H](C)[C@H]1CC[C@H]2C3=C(CC[C@]12C)[C@@]1(C)CC[C@H](O)C[C@@H]1CC3` [Zymosterol], for which the “CEO, units of MIS activity” value in data set [1] (0.001 μg/ml) is 0.2 units of MIS activity; in data set [1] (0.01 μg/ml), 0.4 units of MIS activity; in data set [1] (0.1 μg/ml), 1.1 units of MIS activity. Further, the “DO, units of MIS activity” value was 0.6 units of MIS activity in the data set with denuded oocytes, DO (0.01 μg/ml) and 1.2 units of MIS activity in the data set with denuded oocytes, DO (0.1 μg/ml).
As to `CC(C)=CCC[C@@H](C)[C@H]1CC[C@H]2C3=C(CC[C@]12C)[C@@]1(C)CC[C@H](O)[C@H](C)[C@@H]1CC3` [^4β-Methylzymosterol, 4^β-Methylzymosterol], the entries for the “CEO, units of MIS activity” value in data set [1] (0.13 μg/ml) and in data set [1] (3.9 μg/ml) were 2.4 units of MIS activity and 3.5 units of MIS activity, respectively. In addition, the “DO, units of MIS activity” value with denuded oocytes, DO (0.13 μg/ml) is on record as 0.8 units of MIS activity; in the data set with denuded oocytes, DO (3.9 μg/ml), 6.2 units of MIS activity.
On to `CC(C)CCC[C@@H](C)[C@H]1CC[C@H]2[C@@H]3CC=C4C[C@@H](O)CC[C@]4(C)[C@H]3CC[C@]12C` [cholesterol, reference compound], for which, in data set [2] (60 μM with 0.2 mM IBMX), the “% GVB (oocytes undergoing germinal vesicle breakdown per total oocytes per ovary), mean±sd” value was found to be 2.1±1.8%.
